Data taken from publication PMC5464344, “Analgesic and anti‐inflammatory properties of novel, selective, and potent EP4 receptor antagonists” (Pharmacology Research & Perspectives, 2017).
Where two headings read alike, the source gives them in different places.

Columns and labels:
[1] = target: T1, IP (PGI2) (h), agonist radioligand (Homo sapiens, UniProt P43119); experiment: Off-target activity (CEREP), IP; type: binding; details: 10 μmol/L; obtained at CEREP (Blanco et al. 2016c); read-out: % Inh IP (PGI2) (h), agonist radioligand
T1 construct: CEREP (contract laboratory that ran the assay)
From the text: (§1) The off‐target activity related to prostaglandin pathway (Table 2) were obtained at CEREP (Blanco et al. 2016c).

[2] = target: T2, TP (TXA2/PGH2) (h); agonist effect (Homo sapiens, UniProt P21731); experiment: Off-target activity (CEREP), TP agonist effect; type: biochemical; details: 10 μmol/L; obtained at CEREP (Blanco et al. 2016c)
T2 construct: CEREP (contract laboratory that ran the assay)
T2 sequence (P21731 1-343): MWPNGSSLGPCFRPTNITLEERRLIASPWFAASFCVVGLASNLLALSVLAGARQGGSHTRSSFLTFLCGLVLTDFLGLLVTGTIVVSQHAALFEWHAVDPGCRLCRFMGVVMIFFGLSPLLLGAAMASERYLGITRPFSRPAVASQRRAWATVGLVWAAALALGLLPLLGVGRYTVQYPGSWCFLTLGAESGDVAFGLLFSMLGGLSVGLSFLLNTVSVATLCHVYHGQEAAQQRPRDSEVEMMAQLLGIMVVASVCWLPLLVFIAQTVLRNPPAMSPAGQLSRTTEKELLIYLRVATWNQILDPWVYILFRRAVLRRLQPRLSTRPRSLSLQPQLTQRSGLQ
From the text: as §1

[3] = target: T3, FP(h); agonist radioligand (Homo sapiens, UniProt P43088); experiment: Off-target activity (CEREP), FP; type: binding; details: 10 μmol/L; obtained at CEREP (Blanco et al. 2016c)
T3 construct: CEREP (contract laboratory that ran the assay)
From the text: as §1

[4] = target: T4, DP1(h); agonist radioligand (Homo sapiens, UniProt Q13258); experiment: Off-target activity (CEREP), DP1; type: binding; details: 10 μmol/L; obtained at CEREP (Blanco et al. 2016c)
T4 construct: CEREP (contract laboratory that ran the assay)
T4 sequence (Q13258 1-359): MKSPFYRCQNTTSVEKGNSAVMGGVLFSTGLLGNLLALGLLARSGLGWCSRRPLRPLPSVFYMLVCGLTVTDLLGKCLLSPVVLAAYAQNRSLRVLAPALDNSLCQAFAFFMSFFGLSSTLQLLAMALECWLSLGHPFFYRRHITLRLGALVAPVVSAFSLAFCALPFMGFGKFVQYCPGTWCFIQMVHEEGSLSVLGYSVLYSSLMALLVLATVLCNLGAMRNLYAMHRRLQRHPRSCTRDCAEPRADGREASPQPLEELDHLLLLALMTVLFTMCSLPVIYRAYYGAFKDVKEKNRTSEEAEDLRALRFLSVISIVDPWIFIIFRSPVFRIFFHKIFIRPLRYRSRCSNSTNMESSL
From the text: as §1

[5] = target: T5, TP (TXA2/PGH2) (h); antagonist effect (Homo sapiens, UniProt P21731); experiment: Off-target activity (CEREP), TP antagonist effect; type: biochemical; details: 10 μmol/L; obtained at CEREP (Blanco et al. 2016c)
T5 construct: CEREP (contract laboratory that ran the assay)
T5 sequence (P21731 1-343): T2 sequence (P21731 1-343)
From the text: as §1

[6] = target: Human EP4 (Homo sapiens, UniProt P35408); experiment: EP4 cAMP antagonist assay (HTRF), human EP4; type: cell-based; details: read-out: cAMP Antagonism (hEP4) Human EP4 IC50
Description: Human EP4 (GenBank Accession # AY429109, Clone ID PER0400000, UMR cDNA Resource Center, Rolla, MO) was stably expressed in HEK293 cells. Rat EP4 cDNA (GenBank Accession# NM_03276) was cloned into pcDNA 3.1 vector and stably transfected into HEK293 cells. The cell lines were maintained in DMEM (invitrogen) supplemented with 10% fetal bovine serum (FBS), 1 mmol/L sodium pyruvate, 10 mmol/L HEPES, 500 μg/mL geneticin and 2 mmol/L L‐glutamine. Confluent cultures were grown at 37°C in an atmosphere containing 5% CO2. […] Immediately prior to the assay, cells were thawed with DMEM and suspended in cAMP assay buffer (HBSS with 0.1% BSA, 20 mmol/L HEPES and 200 μmol/L IBMX).
To measure the cAMP levels, cAMP‐d2 conjugate and anti cAMP‐cryptate conjugate in lysis buffer were incubated with the treated cells at room temperature for 1 h. […] The raw data were converted to cAMP (nmol/L) using a cAMP standard curve generated for each experiment. Data were analyzed using a 4‐parameter nonlinear logistic equation. Results are expressed as the geometric mean ± standard deviation or geometric mean ± standard error as noted.

[7] = tested on: male Lewis rats, MIA injected knee; experiment: Rat MIA model of pain (incapacitance testing); type: in vivo; details: 1 h post dose, P < 0.05 by Dunnett's test
Description: For the monoiodoacetate (MIA) and adjuvant induced arthritis (AIA) studies, male Lewis rats (Envigo, Indianapolis, IN) of approximately 8 weeks of age at the time of disease induction were used. For collagen induced arthritis studies (CIA) female Lewis rats (Charles River) weighing 150–170 g were used. Rats were housed in groups of 2 or 3 per cage and maintained in a constant temperature, and on a 12 h light/12 h dark cycle. Animals had free access to food and water at all times except during data collection.
The right knees of rats were injected with 0.3 mg of MIA (Sigma Aldrich) in 50 μL of saline and the left knees with 50 μL of saline on day zero. These intra‐articular injections are directly into the synovial cavity of the flexed knee joint through the patella ligament. Twelve days later, the rats were randomized into groups of five rats using body weight and the Block Randomized Allocation Tool. […] Reference compound CJ‐042,794 was also tested in the MIA model on day 14 post MIA injection at doses of 1, 3, 10, 30, and 50 mg/kg with the vehicle being 10% Solutol in PEG400 (n = 4 rats per group). The nonsteroidal anti‐inflammatory drug (NSAID) diclofenac was included in all studies at a dose of 5 mg/kg as a positive control. […] Pain was measured using incapacitance testing. […]

Sequence of Human EP4 (P35408 whole entry): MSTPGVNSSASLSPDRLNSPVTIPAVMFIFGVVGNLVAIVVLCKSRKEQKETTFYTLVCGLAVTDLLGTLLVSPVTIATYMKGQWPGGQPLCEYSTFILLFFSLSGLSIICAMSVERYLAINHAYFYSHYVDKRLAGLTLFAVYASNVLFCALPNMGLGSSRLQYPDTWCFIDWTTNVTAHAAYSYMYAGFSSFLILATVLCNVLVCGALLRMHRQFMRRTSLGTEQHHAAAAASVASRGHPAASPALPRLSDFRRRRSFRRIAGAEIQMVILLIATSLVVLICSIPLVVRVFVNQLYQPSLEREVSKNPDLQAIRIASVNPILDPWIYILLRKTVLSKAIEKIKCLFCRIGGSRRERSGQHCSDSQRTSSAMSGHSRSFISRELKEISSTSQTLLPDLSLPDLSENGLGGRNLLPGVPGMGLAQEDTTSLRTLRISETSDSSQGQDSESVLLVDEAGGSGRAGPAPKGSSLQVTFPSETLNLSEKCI
T3 sequence (P43088 whole entry): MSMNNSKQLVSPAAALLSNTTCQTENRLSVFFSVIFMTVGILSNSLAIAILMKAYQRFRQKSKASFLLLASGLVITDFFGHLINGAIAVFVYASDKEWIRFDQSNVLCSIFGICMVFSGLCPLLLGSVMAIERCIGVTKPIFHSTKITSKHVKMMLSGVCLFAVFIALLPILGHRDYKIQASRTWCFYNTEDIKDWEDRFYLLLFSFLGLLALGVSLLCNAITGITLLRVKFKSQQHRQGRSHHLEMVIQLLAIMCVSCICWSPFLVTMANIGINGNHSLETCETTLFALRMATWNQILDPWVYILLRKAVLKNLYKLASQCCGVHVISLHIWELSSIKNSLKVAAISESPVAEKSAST
T1 sequence (P43119 whole entry): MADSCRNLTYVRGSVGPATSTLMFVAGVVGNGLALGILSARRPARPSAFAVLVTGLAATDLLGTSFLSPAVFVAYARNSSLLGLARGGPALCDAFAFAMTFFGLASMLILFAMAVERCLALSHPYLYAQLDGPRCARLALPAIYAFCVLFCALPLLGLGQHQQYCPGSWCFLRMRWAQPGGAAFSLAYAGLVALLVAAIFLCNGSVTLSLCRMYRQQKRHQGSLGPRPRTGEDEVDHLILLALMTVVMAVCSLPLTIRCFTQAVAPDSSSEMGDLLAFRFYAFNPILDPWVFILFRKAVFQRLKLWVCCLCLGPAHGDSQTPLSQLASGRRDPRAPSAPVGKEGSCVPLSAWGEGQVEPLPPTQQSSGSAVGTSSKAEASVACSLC

Row | IC50 [6] [nM] | IC50 ([6]; HEK293 cells stably expressing human EP4, PGE2 at EC80, geometric mean ± SEM) [nM] | Compound | inhibition at 10 µM [1] [%] | % Inh TP (TXA2/PGH2) (h); agonist effect [2] [%] | % Inh FP(h); agonist radioligand [3] [%] | % Inh DP1(h); agonist radioligand [4] [%] | % Inh TP (TXA2/PGH2) (h); antagonist effect [5] [%] | pain efficacy (normalization of hind paw weight distribution, incapacitance testing) ([7]; 1, 3, and 10 mg/kg oral) | pain efficacy (incapacitance testing) versus vehicle ([7]; 3, 10, 30, and 50 mg/kg oral)
1 | ~6 |  | Cc1ccc(N2CCC(O)CC2)nc1C(=O)Nc1c(C)cc(C(=O)O)cc1C [Compound 1] | -4 | −4.00 | −2.00 | 0.00 | −12.00 |  | 
2 |  | 2.4 ± 1.4 | Cc1ccc(-c2cccc(CO)c2)nc1C(=O)Nc1c(C)ccc(C(=O)O)c1C [Compound 3] |  |  |  |  |  |  | 
3 |  |  | C[C@H](NC(=O)[C@H]1CCCCN1CCOc1ccccc1)c1ccc(C(=O)O)cc1 [Compound 2] | 9 | −2.00 | −9.00 | −4.00 | −12.00 | effective | 
4 | 4.5 ± 1.85 |  | C[C@H](NC(=O)c1cc(Cl)ccc1Oc1ccc(F)cc1)c1ccc(C(=O)O)cc1 [CJ‐042,794, reference compound] |  |  |  |  |  |  | significantly different from vehicle
